According to ChEMBL document CHEMBL1201862, “PubChem BioAssay data set” (2004):
The source made the active and inactive calls.

Experiments:
[1] = alpha-synuclein stem-loop luciferase translation blockers – H4 neuroglioma cells, luminescence, confirmation (AID 1988); assay type: functional, cell-based
[2] = luciferase reporter signal suppression in cells – H4 neuroglioma cells, luminescence, dose response (AID 1990); assay type: functional, cell-based
[3] = Luminescence Cell-Based Dose Response HTS to Identify Inhibitors of 5'UTR Stem-Loop Driven Prion Protein mRNA Translation in H4 Neuroglioblastoma Cells. [Related pubchem assays: 1827 (Project Summary), 1813 (Primary HTS)]; assay type: functional
[4] = fluconazole-exposed Candida albicans growth modulators – fluorescence, retest, confirmation (AID 2467); assay type: functional, cell-based
[5] = NIH-3T3 fibroblast cytotoxicity, dose response, cytotoxicity control, cell-based, fluorescence, Alamar Blue, secondary assay (AID 2327); assay type: functional;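 note: NIH-3T3 mouse fibroblasts cultured with fluconazole at 8 µg/mL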
[6] = system: INS1; assay: INS-1E survival protection against cytokine death – cell-based, luminescence, retest, dose response (AID 449756); assay type: functional; details: Rattus norvegicus;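 note: cell death triggered by IL-1 beta plus TNF-alpha plus IFN-gamma mixture; protective hits raise ATP signal compared with cytokine alone wells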
[7] = target: FAD-linked sulfhydryl oxidase ALR (Homo sapiens, UniProt P55789); assay: ALR-catalysed DTT oxidation blockers – biochemical, H2O2 detection, luminescence, cherry-pick, dose response (AID 493248)
[8] = target: Cytochrome P450 2C19 (Homo sapiens, UniProt P33261); assay: Cytochrome panel assay with activity outcomes. Panel member name: p450-cyp2c19 Compounds with AC50 equal or less than 10 uM are considered active; assay type: functional
[9] = target: T1, Heat shock factor protein 1 (Mus musculus, UniProt P38532); assay: decrease of HSF1-responsive luciferase luminescence – cell-based, NIH3T3, dose retest, confirmation (AID 2382); assay type: functional;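 note: NIH3T3 fibroblasts with HSF1-driven luciferase reporter stressed by proteasome inhibitor MG132; luminescence from HSF1-driven luciferase expression after 8 hours of MG132 stress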
T1 sequence (P38532 whole entry): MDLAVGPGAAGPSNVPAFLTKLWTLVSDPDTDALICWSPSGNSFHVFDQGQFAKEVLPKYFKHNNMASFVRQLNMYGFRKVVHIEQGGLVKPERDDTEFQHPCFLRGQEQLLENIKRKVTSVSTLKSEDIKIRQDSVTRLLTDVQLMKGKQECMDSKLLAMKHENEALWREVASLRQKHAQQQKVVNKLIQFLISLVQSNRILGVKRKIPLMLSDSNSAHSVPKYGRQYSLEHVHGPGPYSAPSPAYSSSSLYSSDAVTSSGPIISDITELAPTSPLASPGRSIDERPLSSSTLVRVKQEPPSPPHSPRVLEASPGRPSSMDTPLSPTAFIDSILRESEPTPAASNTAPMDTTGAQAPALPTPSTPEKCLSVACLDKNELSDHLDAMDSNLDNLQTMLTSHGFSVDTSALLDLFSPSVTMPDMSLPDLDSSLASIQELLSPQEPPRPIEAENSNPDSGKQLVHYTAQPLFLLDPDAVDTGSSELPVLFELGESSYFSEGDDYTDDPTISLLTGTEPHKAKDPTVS

[10] = Trypanosoma cruzi growth suppression in host cells – NIH3T3 host cells, beta-gal luminescence, confirmation (AID 2044); assay type: functional, cell-based;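 note: intracellular parasites grown in NIH/3T3 mouse fibroblasts as host cells; luminescent beta-galactosidase reporter signal from transgenic T. cruzi replicating inside host cells; inhibitors lower the luminescence signal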
[11] = NIH3T3 cell viability loss – ATP luminescence, mouse fibroblasts, counter-screen, dose response (AID 2010); assay type: functional, cell-based;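 note: cells exposed to compound for about 90 hours before reading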
[12] = system: Streptococcus; assay: GAS UMAA2166 growth inhibition – luminescence, BacTiterGlo, counter-screen for streptokinase expression inhibitor project, dose response (AID 1915); assay type: functional, organism-based;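 note: potency for reduction of bacterial viability or growth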
[13] = system: Streptococcus sp. 'group A'; assay: Streptococcus pyogenes SK(-)GAS viability under kanamycin – luminescence, BacTiterGlo, confirmation, counter-screen for streptokinase expression inhibitor project, dose response (AID 1900); assay type: functional, organism-based
[14] = reduction of Shn3 3'UTR-driven luciferase in osteoblasts – cell-based, Clone20 osteoblasts, firefly luciferase, cherry-picked, dose response (AID 624132); assay type: functional;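 note: firefly luciferase luminescence from reporter carrying the Shn3 3'UTR in osteoblasts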
[15] = non-specific 3'UTR reporter inhibition in Clone20-Shn3RL – cell-based, Renilla luciferase, cherry-picked, counter-screen for Shn3 inhibitor project, dose response (AID 624133); assay type: functional

Sequence of FAD-linked sulfhydryl oxidase ALR (P55789 whole entry): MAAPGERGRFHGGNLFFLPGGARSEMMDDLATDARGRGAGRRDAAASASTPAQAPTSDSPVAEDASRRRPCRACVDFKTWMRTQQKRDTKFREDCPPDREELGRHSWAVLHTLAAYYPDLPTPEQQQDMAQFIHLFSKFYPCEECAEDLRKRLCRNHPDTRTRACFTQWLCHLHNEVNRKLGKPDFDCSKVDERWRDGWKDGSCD
Sequence of Cytochrome P450 2C19 (P33261 whole entry): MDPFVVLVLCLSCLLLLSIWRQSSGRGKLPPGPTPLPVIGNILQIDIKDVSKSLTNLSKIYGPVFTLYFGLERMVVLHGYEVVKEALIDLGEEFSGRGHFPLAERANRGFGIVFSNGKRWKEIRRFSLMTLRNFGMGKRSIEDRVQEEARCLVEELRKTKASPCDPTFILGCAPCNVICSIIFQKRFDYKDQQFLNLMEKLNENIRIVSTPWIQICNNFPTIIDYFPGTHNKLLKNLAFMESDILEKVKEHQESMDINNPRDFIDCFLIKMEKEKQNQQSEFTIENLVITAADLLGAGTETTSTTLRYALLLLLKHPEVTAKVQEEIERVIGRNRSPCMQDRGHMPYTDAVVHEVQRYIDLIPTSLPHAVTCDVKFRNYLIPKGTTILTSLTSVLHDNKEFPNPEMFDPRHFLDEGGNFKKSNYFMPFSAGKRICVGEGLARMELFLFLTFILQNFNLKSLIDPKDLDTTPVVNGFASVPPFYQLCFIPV

## Cc1ccc2nc(Cl)c(-c3ccccc3)cc2c1
[1]
  EC50: > 120 µM (not active)
[2]
  EC50: > 120 µM (not active)
[3]
  EC50: > 120 µM (not active)

## CCCc1nnc(N=C(S)Nc2ccccc2)s1
[4]
  EC50: 1.09 µM (active)
[5]
  EC50: > 160 µM (inactive)

## CCc1ccc(-[n+]2cc(-c3ccc(F)cc3)n3c2SCCC3)cc1
[6]
  AC50: 0.429 µM (active)

## Cc1c(Br)cnn1C(C)C(=O)N1CCN(c2ccc(F)cc2)CC1 (centres undefined)
[7]
  AC50: 0.578 µM (active)

## O=c1[nH]n2c(C(F)(F)F)cc(C3CC3)nc2c1N=Nc1ccccc1
[4]
  EC50: 1.05 µM (active)
[5]
  EC50: > 150 µM (inactive)

## c1ccc(-n2ncc3c(NCCCN4CCOCC4)ncnc32)cc1
[8]; read-out: AC50
  AC50: 15.8 µM (inconclusive)

## Cc1cc(C(=O)N2CCCC(Nc3ccc(C(C)C)cc3)C2)nn1C (centres undefined)
[7]
  AC50: 6.69 µM (active)

## Cc1ccc(S(=O)(=O)CC(=O)Nc2ccc(S(=O)(=O)Nc3onc(C)c3C)cc2)cc1
[9]
  EC50: > 195 µM (not active)

## C=CCn1c(S)nnc1-c1cccn(Cc2ccccc2)c1=O
[1]
  EC50: > 120 µM (not active)
[8]; read-out: AC50
  AC50: 25.1 µM (inconclusive)
[2]
  EC50: > 120 µM (not active)
[3]
  EC50: 27.4 µM (active)

## C/C(=N\Nc1nc(C)cc(-c2ccccc2)n1)c1ccc(O)cc1
[6]
  AC50: 0.993 µM (active)

## O=C(NCc1ccc(C(=O)O)cc1)OCc1ccccc1
[9]
  EC50: > 195 µM (not active)

## COc1ccc(/C=C2\SC(=S)N(CCCC(=O)N3CCN(C)CC3)C2=O)cc1
[10]
  EC50: 1.06 µM (active)
[11]
  EC50: 8.7 µM (active)

## COc1ccc(CNC(=O)OCCN2CCN(S(=O)(=O)c3ccc(C)cc3)CCC2=O)cc1
[9]
  EC50: > 195 µM (not active)

## Cc1ccc(NC(S)=NC2CC3CCC(C2)N3Cc2ccco2)cc1C (centres undefined)
[9]
  EC50: > 195 µM (not active)

## Nc1ccc(Cl)c(S(=O)(=O)Nc2ccc(Cl)cc2)c1
[10]
  EC50: 39.7 µM (active)
[11]
  EC50: > 60 µM (not active)

## COc1ccccc1NS(=O)(=O)c1cccc(NC(=O)c2[nH]c(C)c(C(C)=O)c2C)c1
[6]
  AC50: 31.1 µM (active)

## Cc1cccc(Sc2nc(-c3ccccc3)ncc2C(=O)O)c1
[4]
  EC50: 1.66 µM (active)
[5]
  EC50: 104 µM (active)

## Cn1c(=O)[nH]c(=O)c2c1nc(CN1CCOCC1)n2CCCO
[8]
  AC50: inconclusive

## CCC1=NN2C(=N)/C(=C\c3cccn3-c3ccc(C)c(C)c3)C(=O)N=C2S1
[12]
  EC50: 6.01 µM (active)
[13]
  EC50: 3.34 µM (active)

## COc1ccc(CNC(=O)c2ccc(CS(=O)(=O)c3ccc(Br)cc3)o2)cc1
[9]
  EC50: > 195 µM (not active)

## CCN(CC)S(=O)(=O)c1cc(C)ccc1N=C(S)Nc1cccnc1
[6]
  AC50: 43.2 µM (active)

## Brc1ccc2c(c1)[C@H]1OCC[C@H]1[C@@H](c1cccs1)N2
[1]
  EC50: 13.2 µM (active)
[2]
  EC50: > 60 µM (not active)
[3]
  EC50: 17.2 µM (active)

## CC(=O)Nc1ccc2c(c1)OCCO2
[8]; read-out: AC50
  AC50: 17.8 µM (inconclusive)

## Cc1ccc(S(=O)(=O)CCC(=O)Nc2ccc(Br)cc2)cc1
[9]
  EC50: > 195 µM (not active)

## COC(=O)C1=CN(Cc2ccc(OC)c(OC)c2)C=C(C(=O)OC)C1c1cccc(OC)c1OC
[10]
  EC50: 0.384 µM (active)
[11]
  EC50: > 60 µM (not active)

## CC(=O)N1CCOCCOCCN(C(C)=O)CCOCCOCC1
[5]
  EC50: > 150 µM (inconclusive)

## COc1ccc(CCN(C)CCC(=O)Nc2ccc(C)cc2)cc1OC
[10]
  EC50: 0.227 µM (active)
[11]
  EC50: > 60 µM (not active)

## O=C(CN1CCN(S(=O)(=O)c2ccc3ccccc3c2)CC1)NC(=O)NC1CCCCC1
[1]
  EC50: 46.8 µM (active)
[2]
  EC50: 13 µM (active)
[3]
  EC50: > 120 µM (not active)

## Cc1cccc(N2CCN(C(=O)NC3CCCCC3)CC2C)c1 (centres undefined)
[7]
  AC50: 6.6 µM (active)

## O=C(Cn1cc(C(=O)c2ccco2)c2ccccc21)NC1CCCCC1
[9]
  EC50: > 195 µM (not active)

## CC1=NN(c2ccccc2)C(=O)C1/C=C1/C(=O)NC(=O)N(c2cc(C)cc(C)c2)C1=O (centres undefined)
[7]
  AC50: 1.76 µM (active)

## O=C(N/N=C/c1ccccc1F)NC12CC3CC(CC(C3)C1)C2
[10]
  EC50: 2.78 µM (active)
[11]
  EC50: > 30 µM (not active)

## Cc1cccc(C(=O)NC(=S)N2CCN(c3ccc([N+](=O)[O-])cc3)CC2)c1
[9]
  EC50: > 195 µM (not active)

## CCc1ccc(C(=O)NNc2cc(Cl)ccc2Cl)cc1
[6]
  AC50: 6.64 µM (active)

## CN(C)c1ccc(CNc2ncnc3sccc23)cc1
[4]
  EC50: 2.63 µM (active)
[5]
  EC50: > 160 µM (inactive)

## O=C(CCn1c(=S)oc2ccccc21)NC1CCCCCC1
[9]
  EC50: > 195 µM (not active)

## c1ccc(CNc2ncnc3sc4c(c23)CCCC4)nc1
[7]
  AC50: 37.2 µM (active)

## C/C(=N\Nc1ccc(Cl)c(C(=O)O)c1)c1cc2ccccc2o1
[7]
  AC50: 0.138 µM (active)

## S=C(Nc1ccc(Cl)cc1)Nc1ccc2c(c1)OCCO2
[4]
  EC50: > 38 µM (not active)
[5]
  EC50: > 150 µM (inactive)

## CCOC(=O)N1CCN(CC(c2ccccc2)c2ccccc2)CC1
[14]
  AC50: 14.1 µM (active)
[15]
  AC50: 39.1 µM (active)

## COc1cc(OC)cc(-c2cc(N3C(=O)Nc4ccccc4N3O)[nH]n2)c1
[9]
  EC50: 73.7 µM (active)

## CCOC(=O)N1CCN(c2nc(C)c3c(n2)CCCC3=O)CC1
[9]
  EC50: > 195 µM (not active)

## CCOC(=O)c1cc(-c2ccccc2)sc1NC(=O)CN1C(=O)NC(CC)(c2ccccc2)C1=O (centres undefined)
[10]
  EC50: 2.17 µM (active)
[11]
  EC50: > 60 µM (inconclusive)

## O=C(CSc1oc(-c2cccs2)nc1S(=O)(=O)c1ccccc1)NC1CCCCC1
[10]
  EC50: 1.13 µM (active)
[11]
  EC50: > 60 µM (inconclusive)

## O=C(CSc1ccc(Cl)cc1)Nc1nnc(-c2ccco2)o1
[4]
  EC50: 3.02 µM (active)
[5]
  EC50: > 160 µM (inconclusive)

## CC(=O)O[C@H]1CC[C@]2(C)[C@H]3CC=C4[C@@H]5[C@@H](C)[C@H](C)CC[C@]5(C(=O)O)CC[C@@]4(C)[C@]3(C)CC[C@H]2C1(C)C [O-ACETYLURSOLIC ACID]
[12]
  EC50: 3.26 µM (active)
[13]
  EC50: 2.11 µM (active)

## O=C(NCc1ccco1)c1ccccc1NS(=O)(=O)c1ccc(Cl)s1
[7]
  AC50: 2.1 µM (active)

## COc1cc(/C=C2/C(=O)ON=C2C)cc(Cl)c1O
[7]
  AC50: 16 µM (active)

## O=C(c1cc([N+](=O)[O-])ccc1N1CCCCC1)N1CCc2ccccc21
[1]
  EC50: 10.9 µM (active)
[2]
  EC50: > 120 µM (not active)
[3]
  EC50: > 120 µM (not active)

## COc1ccc(Nc2ncnc3sc(-c4ccccc4)cc23)cc1
[9]
  EC50: > 195 µM (not active)

## C1=C(c2ccccc2)CCN(c2[nH]cnc3ncnc2-3)C1
[9]
  EC50: > 195 µM (not active)

## COc1ccccc1N1CCN(C(S)=Nc2ccc(F)cc2)CC1
[9]
  EC50: 54.6 µM (active)

## CCN(CC)c1ccc(NC(=O)C2CC3CCC2C3)cc1 (centres undefined)
[7]
  AC50: 0.431 µM (active)

## O=C(NCC(c1ccco1)N1CCc2ccccc21)c1ccccc1F (centres undefined)
[7]
  AC50: 1.67 µM (active)

## Cc1cccc2cc(CN(Cc3cccs3)Cc3nnnn3Cc3ccccc3)c(O)nc12
[10]
  EC50: 2.68 µM (active)
[11]
  EC50: > 30 µM (not active)

## O=C(CC(Sc1ccc(Br)cc1)C(=O)O)c1ccc(F)cc1 (centres undefined)
[10]
  EC50: 2.1 µM (active)
[11]
  EC50: > 30 µM (not active)

## O=C(Nc1ccc(-c2nc3ccccc3s2)cc1)C1=COCCO1
[1]
  EC50: 2.95 µM (active)
[3]
  EC50: 5.8 µM (active)

## Cc1ccc(-c2nc(-c3cccnc3)sc2CC(=O)O)cc1
[7]
  AC50: 3.45 µM (active)

## Cc1ccc(C(=O)N(Cc2cccnc2)Cc2cc3cc(C)ccc3n3nnnc23)cc1
[10]
  EC50: 1.29 µM (active)
[11]
  EC50: > 60 µM (not active)

## COc1ccccc1C(=O)NCCn1cc(SCC(=O)Nc2cc(C)on2)c2ccccc21
[1]
  EC50: > 120 µM (not active)
[2]
  EC50: 16.2 µM (active)
[3]
  EC50: > 120 µM (not active)

## CCN(CCCNS(=O)(=O)c1ccc2c(c1)CCN2C(C)=O)c1cccc(C)c1
[7]
  AC50: 2.81 µM (active)

## COc1c(Cl)cc(Cl)cc1CNCCNCC(C)O (centres undefined)
[8]; read-out: AC50
  AC50: 14.1 µM (inconclusive)

## CS(=O)(=O)Nc1nc2ccccc2[nH]1
[9]
  EC50: > 195 µM (not active)

## CN1C2CCC1CC(OC(=O)c1ccc(Cl)cc1)C2 (centres undefined)
[8]; read-out: AC50
  AC50: 5.62 µM (inconclusive)

## Oc1[nH]c2ccc(Br)cc2c1N=Nc1ccc(C(F)(F)F)cn1
[10]
  EC50: 2.33 µM (active)
[11]
  EC50: > 60 µM (not active)
